Measured values reported in paper PMC9330476 (Toxins, 2022).
Entries after “also recorded” stand apart in the source; their conditions may differ. Bridge positions count the residues as written; N and C are the ends. Ends that are not written are not given here. I, II: the chains in the order shown.

How the values were obtained:
hα7 nAChR = hα7 nAChR (Homo sapiens, UniProt P36544); format: cell-based
hα4β2 nAChR = hα4β2 nAChR (Homo sapiens, UniProt P17787+P43681); format: cell-based
hα4β2 nAChR, sequence (P43681 29-627 limits assumed): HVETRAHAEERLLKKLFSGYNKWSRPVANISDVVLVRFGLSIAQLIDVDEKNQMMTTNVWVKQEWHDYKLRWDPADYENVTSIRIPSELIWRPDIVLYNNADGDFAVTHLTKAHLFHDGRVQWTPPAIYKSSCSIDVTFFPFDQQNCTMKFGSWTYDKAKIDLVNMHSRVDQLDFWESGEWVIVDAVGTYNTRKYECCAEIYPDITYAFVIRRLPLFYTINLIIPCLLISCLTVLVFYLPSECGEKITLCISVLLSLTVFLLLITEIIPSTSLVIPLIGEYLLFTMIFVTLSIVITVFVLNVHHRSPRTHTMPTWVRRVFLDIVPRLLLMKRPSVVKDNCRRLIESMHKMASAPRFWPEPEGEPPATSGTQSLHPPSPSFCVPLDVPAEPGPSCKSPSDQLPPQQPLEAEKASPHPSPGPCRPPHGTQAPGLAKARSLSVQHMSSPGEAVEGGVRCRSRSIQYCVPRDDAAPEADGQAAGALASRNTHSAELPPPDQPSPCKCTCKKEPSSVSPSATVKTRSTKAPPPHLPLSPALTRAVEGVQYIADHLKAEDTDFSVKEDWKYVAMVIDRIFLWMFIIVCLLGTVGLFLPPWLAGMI
hα4β2 nAChR, sequence (P17787 26-502 limits assumed): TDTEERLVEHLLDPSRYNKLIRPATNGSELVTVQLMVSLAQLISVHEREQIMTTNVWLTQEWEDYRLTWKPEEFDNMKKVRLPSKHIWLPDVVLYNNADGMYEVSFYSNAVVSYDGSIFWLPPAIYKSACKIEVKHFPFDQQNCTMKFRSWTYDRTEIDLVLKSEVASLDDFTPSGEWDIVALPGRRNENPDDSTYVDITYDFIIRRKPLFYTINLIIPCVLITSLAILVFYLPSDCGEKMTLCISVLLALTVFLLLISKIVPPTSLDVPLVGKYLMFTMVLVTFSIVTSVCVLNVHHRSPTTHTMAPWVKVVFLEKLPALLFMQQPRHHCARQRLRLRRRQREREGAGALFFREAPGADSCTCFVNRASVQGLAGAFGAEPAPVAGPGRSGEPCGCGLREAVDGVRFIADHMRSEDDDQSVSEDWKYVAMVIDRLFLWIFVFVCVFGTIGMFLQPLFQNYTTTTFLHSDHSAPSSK

hα7 nAChR, sequence (P36544 23-502 limits assumed): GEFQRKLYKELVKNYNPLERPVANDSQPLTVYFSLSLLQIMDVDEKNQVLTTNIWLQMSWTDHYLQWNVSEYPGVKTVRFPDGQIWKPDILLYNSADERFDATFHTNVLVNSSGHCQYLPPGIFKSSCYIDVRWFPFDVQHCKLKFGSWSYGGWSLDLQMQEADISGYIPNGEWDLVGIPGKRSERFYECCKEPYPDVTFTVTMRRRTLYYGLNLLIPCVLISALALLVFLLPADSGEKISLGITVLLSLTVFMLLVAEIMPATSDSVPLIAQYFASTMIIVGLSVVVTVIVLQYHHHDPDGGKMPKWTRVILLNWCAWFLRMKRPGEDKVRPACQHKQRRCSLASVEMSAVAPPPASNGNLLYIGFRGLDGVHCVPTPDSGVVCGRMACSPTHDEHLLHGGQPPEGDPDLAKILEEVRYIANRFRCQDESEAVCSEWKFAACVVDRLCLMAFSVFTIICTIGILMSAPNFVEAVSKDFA

I: EARITCQPRGRSKWGRCCLTQMCGNYCCYKHGCRCVYHSWRGHGCSC / II: EARITCQPRGRSKWGRCCLTQMCGNYCCYKHGCRCVYHSWRGHGCSC (disulfide I:6-II:18, I:17-I:27, I:18-II:6, I:23-I:35, I:28-I:45, I:33-I:47, II:17-II:27, II:23-II:35, II:28-II:45, II:33-II:47) [αD-FrXXA]
dissociation / reversibility on hα7 (hα7 nAChR): the slower dissociation was for hα7 subtype (almost irreversible)
dissociation / reversibility on hα4β2 (hα4β2 nAChR): the fastest was for hα4β2 subtype; also recorded: reversible almost entirely within a few minutes of washing
